Results published in the NIST ThermoML archive (doi:10.1021/je0602723).
Numbers after ± are expanded uncertainties.

Assay: activity coefficient (dimensionless); of the first substance listed, at infinite dilution; xn = mol fraction of the nth substance listed
Conditions: Liquid, Chromatography, x1 = 0

C1COCCO1 [1,4-dioxane] + CCOS(=O)(=O)[O-].CCn1cc[n+](C)c1
activity coefficient (312.4 K): 2.1 ± 0.14
activity coefficient (333.4 K): 2.08 ± 0.14
activity coefficient (354.2 K): 2.06 ± 0.14

O=C1CCCCCN1 [1-aza-2-cycloheptanone] + CCOS(=O)(=O)[O-].CCn1cc[n+](C)c1
activity coefficient (412.3 K): 5.1 ± 0.35
activity coefficient (417.1 K): 6.1 ± 0.42
activity coefficient (427.1 K): 4.9 ± 0.33

CC(C)CO [2-methyl-1-propanol] + CCOS(=O)(=O)[O-].CCn1cc[n+](C)c1
activity coefficient (322.7 K): 1.65 ± 0.11
activity coefficient (333.4 K): 1.51 ± 0.1
activity coefficient (343.9 K): 1.43 ± 0.09
activity coefficient (357.2 K): 1.24 ± 0.08
activity coefficient (386 K): 1.17 ± 0.07

CCC(C)(C)O [2-methylbutan-2-ol] + CCOS(=O)(=O)[O-].CCn1cc[n+](C)c1
activity coefficient (302 K): 2.51 ± 0.17
activity coefficient (312.4 K): 2.44 ± 0.17
activity coefficient (333.4 K): 2.21 ± 0.15
activity coefficient (343.9 K): 2.14 ± 0.15
activity coefficient (354.4 K): 2.07 ± 0.14

CC(C)(C)O [2-methylpropan-2-ol] + CCOS(=O)(=O)[O-].CCn1cc[n+](C)c1
activity coefficient (302 K): 2.02 ± 0.14
activity coefficient (312.4 K): 1.86 ± 0.13
activity coefficient (322.9 K): 1.74 ± 0.12
activity coefficient (333.4 K): 1.64 ± 0.11
activity coefficient (343.9 K): 1.57 ± 0.1
activity coefficient (354.4 K): 1.49 ± 0.1

CC(C)=O [acetone] + CCOS(=O)(=O)[O-].CCn1cc[n+](C)c1
activity coefficient (323.1 K): 1.64 ± 0.11
activity coefficient (333.6 K): 1.63 ± 0.11
activity coefficient (343.9 K): 1.61 ± 0.11
activity coefficient (365 K): 1.56 ± 0.1
activity coefficient (375.4 K): 1.54 ± 0.1
activity coefficient (386 K): 1.5 ± 0.1

CC#N [acetonitrile] + CCOS(=O)(=O)[O-].CCn1cc[n+](C)c1
activity coefficient (312.2 K): 0.81 ± 0.05
activity coefficient (333.4 K): 0.8 ± 0.05
activity coefficient (343.9 K): 0.78 ± 0.05
activity coefficient (354.3 K): 0.77 ± 0.05

c1ccccc1 [benzene] + CCOS(=O)(=O)[O-].CCn1cc[n+](C)c1
activity coefficient (301.8 K): 2.98 ± 0.2
activity coefficient (312.3 K): 2.94 ± 0.2
activity coefficient (323 K): 2.88 ± 0.2
activity coefficient (333.5 K): 2.79 ± 0.19
activity coefficient (343.9 K): 2.69 ± 0.18
activity coefficient (354.4 K): 2.59 ± 0.18
activity coefficient (364.7 K): 2.5 ± 0.17

CCCCO [butan-1-ol] + CCOS(=O)(=O)[O-].CCn1cc[n+](C)c1
activity coefficient (323 K): 1.68 ± 0.11
activity coefficient (333.4 K): 1.59 ± 0.11
activity coefficient (343.8 K): 1.5 ± 0.1
activity coefficient (354.2 K): 1.42 ± 0.09
activity coefficient (365 K): 1.29 ± 0.08

CCC(C)O (configuration not stated) [butan-2-ol] + CCOS(=O)(=O)[O-].CCn1cc[n+](C)c1
activity coefficient (312.5 K): 1.93 ± 0.13
activity coefficient (333.4 K): 1.65 ± 0.11
activity coefficient (344 K): 1.56 ± 0.1
activity coefficient (354.5 K): 1.45 ± 0.1
activity coefficient (364.9 K): 1.42 ± 0.09

CCCC=O [butanal] + CCOS(=O)(=O)[O-].CCn1cc[n+](C)c1
activity coefficient (322.8 K): 3.47 ± 0.24
activity coefficient (333.4 K): 3.39 ± 0.23
activity coefficient (344 K): 3.35 ± 0.23
activity coefficient (354.5 K): 3.29 ± 0.22
activity coefficient (364.9 K): 3.23 ± 0.22
activity coefficient (375.3 K): 3.2 ± 0.22
activity coefficient (385.9 K): 3.14 ± 0.21

CCCCc1ccccc1 [butylbenzene] + CCOS(=O)(=O)[O-].CCn1cc[n+](C)c1
activity coefficient (343.7 K): 28.4 ± 1.9
activity coefficient (354.3 K): 26.3 ± 1.8
activity coefficient (364.8 K): 24.7 ± 1.7
activity coefficient (375.1 K): 23.2 ± 1.6
activity coefficient (385.6 K): 21.6 ± 1.5
activity coefficient (396.1 K): 20.1 ± 1.4

ON=C1CCCCC1 [cyclohexanone oxime] + CCOS(=O)(=O)[O-].CCn1cc[n+](C)c1
activity coefficient (417.2 K): 0.57 ± 0.04
activity coefficient (427.5 K): 0.41 ± 0.03

CCCCCCCCCC [decane] + CCOS(=O)(=O)[O-].CCn1cc[n+](C)c1
activity coefficient (301.8 K): 504 ± 35
activity coefficient (312.4 K): 445 ± 31
activity coefficient (322.9 K): 389 ± 27
activity coefficient (333.5 K): 331 ± 23

CCO [ethanol] + CCOS(=O)(=O)[O-].CCn1cc[n+](C)c1
activity coefficient (302.4 K): 0.86 ± 0.06
activity coefficient (322.8 K): 0.79 ± 0.05
activity coefficient (333.5 K): 0.73 ± 0.05
activity coefficient (343.9 K): 0.69 ± 0.05
activity coefficient (354.3 K): 0.67 ± 0.05

CCc1ccccc1 [ethylbenzene] + CCOS(=O)(=O)[O-].CCn1cc[n+](C)c1
activity coefficient (354.3 K): 9.16 ± 0.62
activity coefficient (364.7 K): 8.71 ± 0.59
activity coefficient (375.1 K): 8.21 ± 0.56
activity coefficient (385.7 K): 7.77 ± 0.53

CCCCCCC=O [heptanal] + CCOS(=O)(=O)[O-].CCn1cc[n+](C)c1
activity coefficient (303.3 K): 16.1 ± 1.1
activity coefficient (312.2 K): 15 ± 1
activity coefficient (322.8 K): 14 ± 0.96
activity coefficient (333.3 K): 13.1 ± 0.89
activity coefficient (354.2 K): 11.4 ± 0.78
